From ChEMBL document CHEMBL4387758, “Discovery and Biological evaluation of pyrimido[4,5-d]pyrimidine-2,4(1H,3H)-dione derivatives as potent Bruton's tyrosine kinase inhibitors” (Bioorg Med Chem, 2019) come the findings set out here.

Molecules are shown by their SMILES.

The target of experiment [1] is T1, Tyrosine-protein kinase BTK (Homo sapiens, UniProt Q06187). Put plainly: Inhibition of BTK (unknown origin) by ELISA.
The species named for another experiment is Homo sapiens. Put plainly: Selectivity ratio of IC50 for inhibition of EGFR (unknown origin) to IC50 for inhibition of BTK (unknown origin).
Experiment [2] deals with T1, Tyrosine-protein kinase BTK. Description: Inhibition of BTK phosphorylation at Tyr223 residue in human TMD8 cells at 0.1 to 1000 nM by Western blot analysis. The class given is cell-based. On the technique in general: A western blot detects proteins with antibodies after separation by electrophoresis.
The test system of the next experiment is Ramos. Description: cells. The note with it: Homo sapiens, 72 h.
Experiment [3] relates to TMD8. Put plainly: Cell cycle arrest in BTK-dependent human TMD8 cells assessed as accumulation of cells in G1 phase at 1 uM incubated for 72 hrs by propidium iodide staining based flow cytometry. Type of experiment: functional.
Experiment [4] has as its system TMD8. Description: Antiproliferative activity against human TMD8 cells assessed as reduction in cell viability incubated for 72 hrs by CCK-8 assay. The class given is functional, cell-based. The note with it: TMD8, 72 h.

T1 sequence (Q06187 whole entry): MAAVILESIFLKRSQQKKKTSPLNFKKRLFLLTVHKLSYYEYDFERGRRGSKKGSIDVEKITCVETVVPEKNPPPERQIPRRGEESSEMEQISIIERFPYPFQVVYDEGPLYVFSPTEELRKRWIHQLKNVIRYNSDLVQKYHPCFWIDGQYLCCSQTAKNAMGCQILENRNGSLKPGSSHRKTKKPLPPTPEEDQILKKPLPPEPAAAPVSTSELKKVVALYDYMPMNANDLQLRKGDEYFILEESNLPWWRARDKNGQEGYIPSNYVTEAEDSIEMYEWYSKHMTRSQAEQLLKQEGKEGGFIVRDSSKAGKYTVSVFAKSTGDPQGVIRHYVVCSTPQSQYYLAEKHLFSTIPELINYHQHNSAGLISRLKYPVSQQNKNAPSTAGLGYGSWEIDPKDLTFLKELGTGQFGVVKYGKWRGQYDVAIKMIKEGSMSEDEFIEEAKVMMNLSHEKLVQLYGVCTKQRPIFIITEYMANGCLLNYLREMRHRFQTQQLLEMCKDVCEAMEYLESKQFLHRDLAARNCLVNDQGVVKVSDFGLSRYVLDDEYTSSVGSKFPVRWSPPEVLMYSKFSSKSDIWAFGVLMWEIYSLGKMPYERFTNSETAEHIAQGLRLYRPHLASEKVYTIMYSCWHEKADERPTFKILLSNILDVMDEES
Description for Ramos: Antiproliferative activity against human Ramos cells assessed as reduction in cell viability incubated for 72 hrs by CCK-8 assay

On to `C=CC(=O)Nc1cccc(-n2c(=O)n(C(C)C)c(=O)c3cnc(Nc4ccc(N(C)CCN(C)C)cc4OC)nc32)c1`, for which half-maximal inhibition in experiment [1] (IC50) was put at 982 nM.
Turning to `C=CC(=O)Nc1cccc(-n2c(=O)n(C(C)C)c(=O)c3cnc(Nc4ccc(OCCN(C)C)cc4OC)nc32)c1`, 349 nM corresponded to half-maximal inhibition in experiment [1] (IC50).
The same measure, in the same setting: under `C=CC(=O)Nc1cccc(-n2c(=O)n(C(C)C)c(=O)c3cnc(Nc4ccc(N5CCC(N(C)C)CC5)cc4OC)nc32)c1` stands 359 nM.
In the case of `C=CC(=O)Nc1cccc(-n2c(=O)n(C(C)C)c(=O)c3cnc(Nc4ccc(N5CCN(C)CC5)cc4OC)nc32)c1`, in experiment [1], 518 nM corresponded to half-maximal inhibition (IC50).
With `C=CC(=O)Nc1cccc(-n2c(=O)n(C(C)C)c(=O)c3cnc(Nc4ccc(N5CCC(N6CCN(C)CC6)CC5)cc4OC)nc32)c1`, 145 nM corresponded to half-maximal inhibition in experiment [1] (IC50).
On the same count and under the same terms, under `C=CC(=O)Nc1cccc(-n2c(=O)n(C)c(=O)c3cnc(Nc4ccc(N5CCN(C(C)=O)CC5)cc4OC)nc32)c1` stands 718 nM; under `C=CC(=O)Nc1cccc(-n2c(=O)n(C)c(=O)c3cnc(Nc4ccc(N5CCSCC5)cc4OC)nc32)c1`, 806 nM.
In the case of `C=CC(=O)Nc1cccc(-n2c(=O)n(Cc3ccccc3)c(=O)c3cnc(Nc4ccc(N5CCC(N(C)C)CC5)cc4OC)nc32)c1`, the Ratio IC50 in the experiment listed under Homo sapiens was found to be 206. In experiment [1], the IC50 (commonly the concentration that inhibits the measured activity by half) turned out to be 248 nM.
Turning to `C=CC(=O)Nc1cccc(-n2c(=O)n(C)c(=O)c3cnc(Nc4ccccc4OC)nc32)c1`, the IC50 in experiment [1] was 996 nM.
Regarding `C=CC(=O)Nc1cccc(-n2c(=O)n(C(C)C)c(=O)c3cnc(Nc4ccc(N5CCN(C)CC5)c(C)c4)nc32)c1`, in experiment [2], the inhibition entry was “Dose-dependent effect”. Moreover, the IC50 was found to be 9210 nM in the experiment on Ramos, 720 nM with TMD8 [4] and 0.8 nM in experiment [1]. The Activity with TMD8 [3] turned out to be 75.2%.
As to `C=CC(=O)Nc1cccc(-n2c(=O)n(CC)c(=O)c3cnc(Nc4ccc(N5CCC(N(C)C)CC5)cc4OC)nc32)c1`, in experiment [1], 396 nM corresponded to half-maximal inhibition (IC50).
Take `C=CC(=O)Nc1cccc(-n2c(=O)n(C(C)C)c(=O)c3cnc(Nc4ccc(N5CCN(C)CC5)c(OC)c4)nc32)c1`: in experiment [2], the inhibition entry is “Dose-dependent effect”. Moreover, the IC50 came to 9650 nM with Ramos, 810 nM in the experiment with TMD8 [4] and 1.2 nM in experiment [1]. In the experiment on TMD8 [3], the Activity was 75.4%.
Regarding `C=CC(=O)Nc1cccc(-n2c(=O)n(CCCc3ccccc3)c(=O)c3cnc(Nc4ccc(N5CCC(N(C)C)CC5)cc4OC)nc32)c1`, inhibition in experiment [1] was half-maximal at 76 nM (IC50).
On to `C=CC(=O)Nc1cccc(-n2c(=O)n(C)c(=O)c3cnc(Nc4ccc(N5CCOCC5)cc4OC)nc32)c1`, for which the IC50 in experiment [1] stood at 852 nM.
Regarding `C=CC(=O)Nc1cccc(-n2c(=O)n(C)c(=O)c3cnc(Nc4ccc(N5CCC(N(C)C)CC5)cc4OC)nc32)c1`, the IC50 in experiment [1] came to 364 nM.
On the same count and under the same terms, under `C=CC(=O)Nc1cccc(-n2c(=O)n(C)c(=O)c3cnc(Nc4ccccc4)nc32)c1` stands 6.2 nM; under `C=CC(=O)Nc1cccc(-n2c(=O)n(CCc3ccccc3)c(=O)c3cnc(Nc4ccc(N5CCC(N(C)C)CC5)cc4OC)nc32)c1`, 23 nM; under `C=CC(=O)Nc1cccc(-n2c(=O)n(CCC)c(=O)c3cnc(Nc4ccc(N5CCC(N(C)C)CC5)cc4OC)nc32)c1`, 30 nM.
